Source: publication PMC8298264, “Function of cofactor Akirin2 in the regulation of gene expression in model human neutrophil-like HL60 cells” (Bioscience Reports, 2021)

Test system: human HL60 cells
Assay: SWATH-MS proteomics, differential protein representation, akirin2 KO vs WT HL60 cells
Format: cell-based
Conditions: KO vs WT HL60 cells; sheet "Under-represented in KO"
Procedure: Total proteins were extracted from WT and akirin2 KO HL60 cells using the AllPrep DNA/RNA/Protein Mini Kit (Qiagen) and protein concentration was determined using the BCA Protein Assay with BSA (Sigma–Aldrich) as standard. Protein extracts (150 µg per sample, n=3 biological replicates) from each WT and KO cells were trypsin digested using the FASP Protein Digestion Kit (Expedeon Ltd., Abcam, Cambridge, U.K.) and sequencing grade trypsin (Promega, Madison, WI, U.S.A.) following manufacturer’s recommendations. The resulting peptides were finally desalted on to OMIX Pipette tips C18 (Agilent Technologies, Santa Clara, CA, U.S.A.), dried down and stored at −20 °C until mass spectrometry analysis. […] Three micrograms of each protein digest from the three biological replicates of WT and akirin2 KO HL60 cells were used for the generation of the reference spectral ion library as part of the SWATH-MS analysis.
Peptides were eluted in a 120-min gradient from 5 to 30% solvent B in solvent A followed by 15-min gradient from 30 to 60% solvent B in solvent A (solvent A: 0.1% formic acid in water, solvent B: 0.1% formic acid in acetonitrile) and directly injected into the mass spectrometer for analysis. For IDA experiments, the mass spectrometer was set to scanning full spectra (350–1400 m/z) using 250 ms accumulation time per spectrum, followed by up to 50 MS/MS scans (100–1500 m/z). Candidate ions with a charge state between +2 and +5 counts per second above a minimum threshold of 100 were isolated for fragmentation. One MS/MS spectrum was collected for 100 ms, before adding those precursor ions to the exclusion list for 15 s (mass spectrometer operated by Analyst TF 1.6, AB Sciex). Dynamic background subtraction was turned off. MS/MS analyses were recorded in high-sensitivity mode with rolling collision energy on and a collision energy spread of 5. For SWATH quantitative analysis, six independent samples (three replicates from WT and akirin2 KO HL60 cells, 5 µg each) were subjected to the cyclic DIA of mass spectra using the SWATH variable windows calculator (V 1.0, AB Sciex) and the SWATH acquisition method editor (AB Sciex), similar to established methods. […] For these experiments, a 50-ms survey scan (350–1400 m/z) was acquired at the beginning of each cycle, and SWATH–MS/MS spectra were collected from 100–1500 m/z for 70 ms at high-sensitivity mode, resulting in a cycle time of 3.6 s. Collision energy for each window was determined according to the calculation for a charge +2 ion-centered upon the window with a collision energy spread of 15. To create a spectral library of all the detectable peptides in the samples, the IDA MS raw files were combined and subjected to database search in unison using ProteinPilot software v. 5.0.1 (AB Sciex) with the Paragon algorithm. […] The detected protein threshold was set at 0.05. An independent false discovery rate (FDR) analysis, using the target–decoy approach provided by Protein Pilot (AB Sciex; https://sciex.com/products/software/proteinpilot-software), was used to assess the quality of identifications. Positive identifications were considered when identified proteins reached 1% of global FDR. […] Global normalization was performed according to the Total Area Sums (TAS) of all detected proteins in the samples. […] Heatmaps were prepared using the Heatmapper (http://www.heatmapper.ca/expression/) with average linkage and Euclidean distance measurement method.

| Substance | Fold Change | Log (Fold Change) |
| --- | --- | --- |
| sp¦P40937¦RFC5_HUMAN | 0.4492 | -0.3475 |
| sp¦Q7Z6Z7¦HUWE1_HUMAN | 0.5255 | -0.2794 |
| sp¦Q14289¦FAK2_HUMAN | 0.4591 | -0.3381 |
| sp¦Q92616¦GCN1_HUMAN | 0.4921 | -0.3079 |
| sp¦P09622¦DLDH_HUMAN | 0.516 | -0.2873 |

Same assay, conditions: KO vs WT; akirin2 KO vs WT HL60 cells; sheet "Under-represented in KO"

| Substance | Fold Change | Log (Fold Change) |
| --- | --- | --- |
| sp¦Q9BRF8¦CPPED_HUMAN | 0.571 | -0.2434 |
| sp¦Q14692¦BMS1_HUMAN | 0.6053 | -0.218 |
| sp¦Q9Y4W6¦AFG32_HUMAN | 0.6186 | -0.2086 |

Same assay, conditions: Over-represented in KO; KO vs WT HL60 cells

| Substance | Fold Change | Log (Fold Change) |
| --- | --- | --- |
| sp¦P49137¦MAPK2_HUMAN | 1.268 | 0.1031 |
| sp¦Q9Y490¦TLN1_HUMAN | 1.355 | 0.1319 |
| sp¦P23284¦PPIB_HUMAN | 1.275 | 0.1054 |
| sp¦Q9Y266¦NUDC_HUMAN | 1.364 | 0.135 |
| sp¦P07237¦PDIA1_HUMAN | 1.346 | 0.1292 |
| sp¦P25786¦PSA1_HUMAN | 1.271 | 0.1042 |
| sp¦Q9P287¦BCCIP_HUMAN | 1.299 | 0.1134 |
| sp¦P04406¦G3P_HUMAN | 1.369 | 0.1364 |
| sp¦Q13283¦G3BP1_HUMAN | 1.326 | 0.1226 |

Same assay, conditions: SWATH-MS, akirin2 KO vs WT HL60 cells, under-represented in KO

| Substance | Fold Change | Log (Fold Change) |
| --- | --- | --- |
| sp¦P60953¦CDC42_HUMAN | 0.7034 | -0.1528 |
| sp¦O95758¦PTBP3_HUMAN | 0.7281 | -0.1378 |
| sp¦Q9UNS2¦CSN3_HUMAN | 0.6926 | -0.1595 |
| sp¦Q6P2Q9¦PRP8_HUMAN | 0.7423 | -0.1294 |
| sp¦P36404¦ARL2_HUMAN | 0.6935 | -0.1589 |
| sp¦P61604¦CH10_HUMAN | 0.7263 | -0.1389 |
| sp¦Q9Y5B9¦SP16H_HUMAN | 0.7335 | -0.1346 |
| sp¦Q14165¦MLEC_HUMAN | 0.7439 | -0.1285 |
| sp¦P54709¦AT1B3_HUMAN | 0.7448 | -0.128 |
| sp¦P38646¦GRP75_HUMAN | 0.7142 | -0.1462 |

Same assay, conditions: SWATH-MS, akirin2 KO vs WT HL60 cells; over-represented in KO

| Substance | Fold Change | Log (Fold Change) |
| --- | --- | --- |
| Deoxynucleoside triphosphate triphosphohydrolase SAMHD1 | 1.851 | 0.2674 |
| CD44 antigen | 2.131 | 0.3287 |
| Cathepsin D | 2.358 | 0.3725 |
| sp¦O75874¦IDHC_HUMAN | 1.681 | 0.2255 |
| sp¦P14618¦KPYM_HUMAN | 1.553 | 0.1913 |
| sp¦Q01469¦FABP5_HUMAN | 1.478 | 0.1698 |
| sp¦P11142¦HSP7C_HUMAN | 1.579 | 0.1983 |
| Transferrin receptor protein 1 | 3.145 | 0.4976 |
| Eosinophil peroxidase | 5.162 | 0.7128 |
| Vimentin | 3.958 | 0.5975 |
| sp¦Q09666¦AHNK_HUMAN | 1.42 | 0.1523 |

Same assay, conditions: SWATH-MS, akirin2 KO vs WT HL60 cells; sheet "Under-represented in KO"

| Substance | Fold Change | Log (Fold Change) |
| --- | --- | --- |
| sp¦P0CG38¦POTEI_HUMAN | 0.7517 | -0.1239 |
| sp¦Q86UX7¦URP2_HUMAN | 0.7476 | -0.1263 |
| sp¦P10155¦RO60_HUMAN | 0.7678 | -0.1147 |
| sp¦P28070¦PSB4_HUMAN | 0.7608 | -0.1188 |

Same assay, conditions: akirin2 KO vs WT HL60 cells; sheet "Over-represented in KO"

| Substance | Fold Change | Log (Fold Change) |
| --- | --- | --- |
| sp¦P46013¦KI67_HUMAN | 1.204 | 0.08052 |
| sp¦O14579¦COPE_HUMAN | 1.2285 | 0.08937 |
| sp¦E9PAV3¦NACAM_HUMAN | 1.243 | 0.09445 |
| sp¦E9PRG8¦CK098_HUMAN | 1.224 | 0.0879 |
| sp¦P13861¦KAP2_HUMAN | 1.201 | 0.07946 |
| sp¦P08238¦HS90B_HUMAN | 1.209 | 0.08231 |

Same assay, conditions: akirin2 KO vs WT HL60 cells; sheet "Under-represented in KO"

| Substance | Fold Change | Log (Fold Change) |
| --- | --- | --- |
| sp¦Q96A72¦MGN2_HUMAN | 0.6271 | -0.2026 |
| sp¦P35579¦MYH9_HUMAN | 0.3518 | -0.4538 |
| sp¦O43148¦MCES_HUMAN | 0.671 | -0.1733 |
| sp¦P12270¦TPR_HUMAN | 0.6414 | -0.1929 |
| sp¦P55809¦SCOT1_HUMAN | 0.6768 | -0.1696 |
| sp¦P02792¦FRIL_HUMAN | 0.2798 | -0.5531 |
| sp¦Q8NF50¦DOCK8_HUMAN | 0.4042 | -0.3934 |
| sp¦P78527¦PRKDC_HUMAN | 0.4323 | -0.3642 |
| sp¦Q5T4S7¦UBR4_HUMAN | 0.241 | -0.6179 |
| sp¦P56545¦CTBP2_HUMAN | 0.655 | -0.1838 |
| sp¦Q14204¦DYHC1_HUMAN | 0.6536 | -0.1847 |
| sp¦P08621¦RU17_HUMAN | 0.6829 | -0.1657 |
| sp¦P53007¦TXTP_HUMAN | 0.3964 | -0.4018 |
